# Experimental data: patent publication US11331289B2, “Antimicrobial composition” (priority 2017, dated 2022)
# System: MRSA 16116
# Test: Time-killing curve, inoculum 5.10^5 CFU/ml (MIC 0.5 μg/ml)
# Assay type: cell-based, Staphylococcus aureus
# Protocol: The objective of this study is to assess in vitro the time-killing curves of oxyclozanide against four strains of Methicillin-Resistant Staphylococcus from dogs.
# Two Methicillin-Resistant Staphylococcus aureus (MRSA) and two Methicillin-Resistant Staphylococcus pseudintermedius (MRSP) isolated from the clinics have been tested.
# The assessment of time-killing curves has been realized by a broth macrodilution method (Mueller-Hinton II Broth).
# Oxyclozanide is diluted in (DMSO) into sterile tubes in order to obtain the following concentrations from 800 to 6.25 μg/ml. Those concentrations and stock standard solution are then diluted (1/10) in Mueller-Hinton II Broth in order to obtain the following concentrations from […] (See Table 2).
# Each operation is performed under sterile conditions. Each working standard solution (10*the final active ingredient concentration) is distributed in tubes (1 ml, for a final volume of 10 ml after addition of 9 ml of inoculum). One tube without active ingredient is used as growth control (Concentration=0).
# Bacterial isolates are sub-cultured from one cryobead on Columbia agar supplemented with 5% of blood. Pure cultures are incubated during 18-24 hours at 37° C. Three to five isolated colonies of similar appearance are selected from a previous culture and transferred into tubes containing 9 ml of Mueller-Hinton II Broth. The broth is incubated during 12-18 hours at 37° C. 0.5 to 1 ml of this broth is inoculated to another Mueller-Hinton II Broth 9 ml tube which is incubated during 3 to 4 hours at 37° C. to reach the exponential growth phase. The bacterial inoculum grown exponential phase is suspended to an optical density of McFarland standard scale 0.5 equivalent to a bacterial density of 10^8 CFU/ml and then adjusted to a concentration of about 5.10^5 CFU/ml as indicated by the guideline CLSI M26-A and to a second inoculum tested: 10^6 CFU/ml.
# 9 ml of bacterial inoculum grown to exponential phase is added to 1 ml of active ingredient (or Mueller Hinton II Broth for the growth control). Tubes are incubated at 35° C. during 24 hours.
# At times 0, 2, 4, 6 and 24 hours, 100 μl of broth of each tube is sampled and diluted in microplates:
# Each well is re-cultured by streaking 10 μl on Columbia agar supplemented with 5% of blood. Plates are incubated at 37° C. during 18-24 hours incubation. Thus, residual bacterial concentrations are determined (CFU/ml). Results are expressed in log10 values of CFU/ml over-time in broth. Due to the procedure used, the minimal bacterial concentration that can be assessed is 10^2 CFU/ml.
smiles,measurement,setting,value
O=C(Nc1cc(Cl)cc(Cl)c1O)c1c(O)c(Cl)cc(Cl)c1Cl [Oxyclozanide],Counting results,"1 MIC, 0 h",3.900E+05 CFU/ml
same,Counting results,"1 MIC, 2 h",1.700E+06 CFU/ml
same,Counting results,"1 MIC, 4 h",2.500E+07 CFU/ml
same,Counting results,"1 MIC, 6 h",1.600E+08 CFU/ml
same,Counting results,"1 MIC, 24 h",1.300E+08 CFU/ml
same,Counting results,"2 MIC, 0 h",3.900E+05 CFU/ml
same,Counting results,"2 MIC, 2 h",1.200E+05 CFU/ml
same,Counting results,"2 MIC, 4 h",1.300E+04 CFU/ml
same,Counting results,"2 MIC, 6 h",1.400E+04 CFU/ml
same,Counting results,"2 MIC, 24 h",3.500E+06 CFU/ml
same,Counting results,"4 MIC, 0 h",3.900E+05 CFU/ml
same,Counting results,"4 MIC, 2 h",6.000E+03 CFU/ml
same,Counting results,"4 MIC, 4 h",6.000E+02 CFU/ml
same,Counting results,"4 MIC, 6 h",4.000E+02 CFU/ml
same,Counting results,"4 MIC, 24 h",1.000E+02 CFU/ml
same,Counting results,"8 MIC, 0 h",3.900E+05 CFU/ml
same,Counting results,"8 MIC, 2 h",5.000E+02 CFU/ml
same,Counting results,"8 MIC, 4 h",1.000E+02 CFU/ml
same,Counting results,"8 MIC, 6 h",1.000E+02 CFU/ml
same,Counting results,"8 MIC, 24 h",1.000E+02 CFU/ml
same,Counting results,"16 MIC, 0 h",3.900E+05 CFU/ml
same,Counting results,"16 MIC, 2 h",3.000E+02 CFU/ml
same,Counting results,"16 MIC, 4 h",1.000E+02 CFU/ml
same,Counting results,"16 MIC, 6 h",3.000E+02 CFU/ml
same,Counting results,"16 MIC, 24 h",1.000E+02 CFU/ml
same,Time to obtain bactericidal effect at 4 MIC,"16116/5.10^5 CFU/ml, >=3 log10 decrease in CFU",4 to 6 h
same,Counting results,"¼ MIC, 0 h",3.900E+05 CFU/ml
same,Counting results,"¼ MIC, 2 h",2.000E+06 CFU/ml
same,Counting results,"¼ MIC, 4 h",4.000E+07 CFU/ml
same,Counting results,"¼ MIC, 6 h",3.000E+08 CFU/ml
same,Counting results,"¼ MIC, 24 h",1.900E+09 CFU/ml
same,Counting results,"½ MIC, 0 h",3.900E+05 CFU/ml
same,Counting results,"½ MIC, 2 h",1.700E+06 CFU/ml
same,Counting results,"½ MIC, 4 h",3.000E+07 CFU/ml
same,Counting results,"½ MIC, 6 h",1.400E+08 CFU/ml
same,Counting results,"½ MIC, 24 h",2.600E+08 CFU/ml
